Experiments:
[1] = system: MDA-MB-436 (mutated BRCA1) cell lines; assay: Cell growth inhibition assay (CellTiter-Glo cell viability, 7 days); assay type: cell-based; settings: Homo sapiens, 168 h, MDA-MB-436 cells
DLD-1 BRCA2(−/−) = assay: as above; assay type: cell-based; settings: Homo sapiens, 168 h, DLD-1 BRCA2(-/-) cells

Row | SMILES | EC50 [1] [nM] | EC50 (DLD-1 BRCA2(−/−)) [nM]
1 | CNC(=O)c1ncc(N2CCN(Cc3cnc4cc(C5CC5)c(=O)[nH]c4c3)CC2)cc1F [Example 100] | 2.6 | 3.9
2 | CCc1cc2ncc(CN3CCN(c4ccc(NC(=O)N5CCOCC5)nc4)CC3)cc2[nH]c1=O [Example 101] | 9.8 | 17
3 | CCc1cc2ncc(CN3CCN(c4ccc(NC(=O)OC5COC5)nc4)CC3)cc2[nH]c1=O [Example 102] | 18 | 13
4 | CNC(=O)c1ccc(N2CCN(Cc3cnc4cc(C5CCC5)c(=O)[nH]c4c3)CC2)cn1 [Example 104] | 1.4 | 1.4
5 | CCc1cc2ncc(CN3CCN(c4cnc(C(=O)NC5CC5)c(F)c4)CC3)cc2[nH]c1=O [Example 105] | 1.8 | 3.2
6 | CCc1cc2ncc(CN3CCN(c4ccncn4)CC3)cc2[nH]c1=O [Example 106] | 6.6 | 5.7
7 | Cc1cc2ncc(CN3CCN(c4cnc(C(=O)NC5CC5)c(F)c4)CC3)cc2[nH]c1=O [Example 108] | 14 | 31
8 | [2H]C([2H])(c1cnc2cc(C3CC3)c(=O)[nH]c2c1)N1CCN(c2ccc(C(=O)NC)nc2)CC1 [Example 115] | 1.3 | 1.9
9 | [2H]C([2H])([2H])NC(=O)c1ccc(N2CCN(C([2H])([2H])c3cnc4cc(C5CC5)c(=O)[nH]c4c3)CC2)cn1 [Example 116] | 1.2 | 2
10 | [2H]C([2H])(c1cnc2cc(C3CC3)c(=O)[nH]c2c1)N1CCN(c2ccc(C(=O)NC3CC3)nc2)CC1 [Example 117] | 1.2 | 2.1
11 | CCc1cc2ncc(CN3CCN(c4ccncc4C#N)CC3)cc2[nH]c1=O [Example 118] | 0.74 | 1.3
12 | [2H]C([2H])([2H])C([2H])([2H])NC(=O)c1ccc(N2CCN(Cc3cnc4cc(C5CC5)c(=O)[nH]c4c3)CC2)cn1 [Example 119] | 0.99 | 1.8
13 | CCc1cc2ncc(CN3CCN(c4ccnnc4C#N)CC3)cc2[nH]c1=O [Example 120] | 1.7 | 2.7
14 | [2H]C([2H])([2H])C([2H])([2H])NC(=O)c1ccc(N2CCN(Cc3cnc4cc(C5CC5)c(=O)[nH]c4c3)CC2)n(C)c1=O [Example 123] | 5.6 | 15
15 | CCc1cc2ncc(CN3CCN(c4cccnc4C#N)CC3)cc2[nH]c1=O [Example 128, 3-{4-[(7-ethyl-6-oxo-5H-1,5-naphthyridin-3-yl)methyl]piperazin-1-yl}pyridine-2-carbonitrile] | 4.2 | 4.8
16 | N#Cc1ncccc1N1CCN(Cc2cnc3cc(C4CC4)c(=O)[nH]c3c2)CC1 [Example 129] | 7 | 15

Row | SMILES | EC50 [1] [nM] | EC50 (DLD-1 BRCA2(−/−)) [nM]
17 | CCc1cc2ncc(CN3CCN(c4ccccc4C#N)CC3)cc2[nH]c1=O [Example 130] | 2.3 | 3.3
18 | Cc1cc2ncc(CN3CCN(c4cccnc4C#N)CC3)cc2[nH]c1=O [Example 131] | 6.2 | 11
19 | CCc1cc2ncc(CN3CCN(c4cc(F)ccc4C#N)CC3)cc2[nH]c1=O [Example 132] | 4.4 | 6.7
20 | CNC(=O)c1ccc(N2CCN(Cc3cnc4c(C)c(C(F)F)c(=O)[nH]c4c3)CC2)cn1 [Example 133] | 0.87 | 1
21 | CCc1cc2ncc(CN3CCN(c4ccc(C(=O)NC5CC5)c(F)c4)CC3)cc2[nH]c1=O [Example 134] | 1.4 | 2.4
22 | C#Cc1cc2ncc(CN3CCN(c4ccc(C(=O)NC)nc4)CC3)cc2[nH]c1=O [Example 135] | 24 | 15
23 | Cc1cnc(N2CCN(Cc3cnc4cc(C5CC5)c(=O)[nH]c4c3)CC2)n1C [Example 136] | 0.93 | 2
24 | CCNC(=O)c1ccc(N2CCN(Cc3cnc4cc(C5CC5)c(=O)[nH]c4c3)CC2)cn1 [Example 137] | 1.3 | 2.1
25 | CNC(=O)c1ccc(N2CCN(Cc3cnc4cc(Cl)c(=O)[nH]c4c3)CC2)cn1 [Example 138, 5-{4-[(7-chloro-6-oxo-5H-1,5-naphthyridin-3-yl)methyl]piperazin-1-yl}-N-methylpyridine-2-carboxamide] | 2.1 | 2.7
26 | CCc1cc2ncc(CN3CCN(c4ccc(C(=O)NC5CC5)nc4C#N)CC3)cc2[nH]c1=O [Example 139] | 0.77 | 1.5
27 | CNC(=O)c1ccc(N2CCN(Cc3cnc4cc(C5CC(F)(F)C5)c(=O)[nH]c4c3)CC2)cn1 [Example 140] | 5.8 | 4.3
28 | CCc1cc2nc(C#N)c(CN3CCN(c4ccc(C(=O)NC)nc4)CC3)cc2[nH]c1=O [Example 141] | 4.1 | 6.4
29 | O=C(NC1CC1)c1ccc(N2CCN(Cc3cnc4c(c3)[nH]c(=O)c3ccoc34)CC2)cn1 [Example 142] | 4 | 8.7
30 | CCc1cc2c(OC)nc(CN3CCN(c4ccc(C(=O)NC)nc4)CC3)cc2[nH]c1=O [Example 144] | 2 | 4.1
31 | CCc1cc2ncc(CN3CCN(c4ccc(C(=O)NC)c(F)c4C#N)CC3)cc2[nH]c1=O [Example 145] | 1.1 | 1.9
